Laboratory results taken from US20250188110A1, “SPECIFIC SMALL MOLECULE INHIBITORS THAT BLOCK KMT9 METHYLTRANSFERASE ACTIVITY AND FUNCTION” (ALBERT-LUDWIGS-UNIVERSITÄT FREIBURG, priority 2021, published 2025).
Read-outs that look alike come from different tables or passages of the source.

Legend:
KMT9 [1] = target: T1, KMT9 (Homo sapiens, UniProt Q9Y5N5); test: KMT9 methyltransferase inhibition assay, MTaseGlo luminescence (from entry 155); assay type: biochemical; details: 100 nM KMT9, 5 μM ETF1, 1 μM SAM
T1 sequence (Q9Y5N5 1-214): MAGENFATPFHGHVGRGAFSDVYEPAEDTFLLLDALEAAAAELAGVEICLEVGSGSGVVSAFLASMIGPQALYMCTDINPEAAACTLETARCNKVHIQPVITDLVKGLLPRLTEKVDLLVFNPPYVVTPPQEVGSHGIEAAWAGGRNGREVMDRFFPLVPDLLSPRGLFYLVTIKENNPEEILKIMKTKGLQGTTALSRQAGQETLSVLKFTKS
T1 sequence (Q9UI30 1-120 isoform Q9UI30-2 partner): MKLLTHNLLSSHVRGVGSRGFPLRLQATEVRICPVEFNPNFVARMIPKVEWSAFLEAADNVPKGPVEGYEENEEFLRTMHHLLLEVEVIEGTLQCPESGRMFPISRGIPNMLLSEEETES
In short: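 KMT9 (100 nM final) pre-incubated with inhibitor for 15 min at room temperature, then reacted with 5 μM ETF1 and 1 μM SAM for 2 h at 30° C. at 2% DMSO final. MTaseGlo luminescence read after 60 min detection; IC50 reported in four potency bins.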

KMT9 [2] = target: T1, KMT9; test: KMT9 thermal shift assay (SyproOrange); assay type: binding
In short: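 ΔTm versus DMSO-only control is reported in bins (>20 K, 15–20 K, 10–15 K, ≤10 K), using Tm from Boltzmann sigmoidal fits of SyproOrange melt curves. KMT9 with compound in pH 8.5 BTP buffer containing MgCl2 and DTT was preincubated at 25° C, then ramped 1° C per 15 s up to 95° C.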

KMT9 [3] = target: T1, KMT9; test: Microscale thermophoresis (MST) KMT9 binding
In short: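 Kd from microscale thermophoresis: compound series against 20 nM His-KMT9 labelled via RED-Tris-NTA, buffer 25 mM HEPES (pH 7.5)/100 mM NaCl/1 mM DTT/0.05% Tween, 40% MST power, 100% LED. Reported as classes: A ≤10 nM, B >10–100 nM, C >100–1000 nM, D >1000 nM.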

[4] = IC50 class, MTaseGlo procedure (entries from 155 on), read-out: Inhibition
[5] = ΔTm class, 500 uM compound, 2 μM KMT9, read-out: Thermal shift
[6] = His-tag labelled KMT9 20 nM, Kd class, read-out: MST
[7] = MTaseGlo procedure (entries from 155), read-out: Inhibition (IC50)
[8] = 500 µM compound, 2 μM KMT9, read-out: Thermal shift (ΔTm)
[9] = His-tag labelled KMT9 20 nM, read-out: MST (Kd)
[10] = from entry 155: MTaseGlo assay, read-out: Inhibition
[11] = ΔTm, 500 µM compound, 2 μM KMT9, 5X SO, read-out: Thermal shift
[12] = microscale thermophoresis, His-tag labelled KMT9 (20 nM), read-out: MST

Structure (SMILES)	IC50 (KMT9 [1]; [4])	ΔTm at 500 µM (KMT9 [2]; [5])	Kd (KMT9 [3]; [6])	IC50 (KMT9 [1]; [7])	ΔTm at 500 µM (KMT9 [2]; [8])	Kd (KMT9 [3]; [9])	further results
O[C@@H]1[C@H](O)[C@@H](C2=CCCN(CC3CC3)C2)C[C@H]1n1cc(-c2nc(Cc3ccccc3)cs2)c2cnc(Cl)nc21 [Compound 586, (1R,2S,3R,5R)-3-[5-(4-Benzyl-1,3-thiazol-2-yl)-2-chloropyrrolo[2,3-d]pyrimidin-7-yl]-5-[1-(cyclopropylmethyl)-5,6-dihydro-2H-pyridin-3-yl]cyclopentane-1,2-diol]	1 to 10 µM	≤ 10 °C	0.1 to 1 µM				
Nc1ccc([C@H]2C[C@@H](n3ccc4c(N)ncnc43)[C@H](O)[C@@H]2O)cc1 [Compound 409, (1r,2s,3r,5r)-3-(4-amino-7H-pyrrolo[2,3-d]pyrimidin-7-yl)-5-(4-aminophenyl) cyclopentane-1,2-diol]	> 10 µM	≤ 10 °C	> 1 µM				
Nc1nc(Cl)nc2c1c(-c1nc(Cc3ccccc3)cs1)cn2[C@@H]1C[C@H](C2CCN(Cc3ccco3)CC2)[C@@H](O)[C@H]1O [Compound 525, (1R,2S,3R,5R)-3-(4-amino-5-(4-benzylthiazol-2-yl)-2-chloro-7H-pyrrolo[2,3-d]pyrimidin-7-yl)-5-(1-(furan-2-ylmethyl)piperidin-4-yl)cyclopentane-1,2-diol]				1 to 10 µM	15 to 20 °C	≤ 0.01 µM	
Nc1ncnc2c1ccn2[C@@H]1C[C@H](c2ccncc2)[C@@H](O)[C@H]1O [Compound 389, (1R,2S,3R,5R)-3-(4-amino-7H-pyrrolo[2,3-d]pyrimidin-7-yl)-5-(pyridin-4-yl) cyclopentane-1,2-diol]							IC50 (KMT9 [1]; [10]): > 10 µM; ΔTm at 500 µM (KMT9 [2]; [11]): ≤ 10 °C; Kd (KMT9 [3]; [12]): > 1 µM
CCN1CCC([C@H]2C[C@@H](n3cc(-c4nc(Cc5ccccc5)cs4)c4c(N)nc(Cl)nc43)[C@H](O)[C@@H]2O)CC1 [Compound 504, (1R,2S,3R,5R)-3-[4-amino-5-(4-benzyl-1,3-thiazol-2-yl)-2-chloropyrrolo[2,3-d]pyrimidin-7-yl]-5-(1-ethylpiperidin-4-yl)cyclopentane-1,2-diol]	0.1 to 1 µM	> 20 °C	≤ 0.01 µM				
O[C@@H]1[C@@H](CNCCCNCCc2ccccc2)C[C@@H](n2cc(-c3nc(Cc4ccccc4)cs3)c3cncnc32)[C@@H]1O [Compound 613, (1R,2S,3R,5R)-3-(5-(4-benzylthiazol-2-yl)-7H-pyrrolo[2,3-d]pyrimidin-7-yl)-5-(((3-(phenethylamino)propyl)amino)methyl)cyclopentane-1,2-diol]							IC50 (KMT9 [1]; [10]): 1 to 10 µM; ΔTm at 500 µM (KMT9 [2]; [11]): 10 to 15 °C; Kd (KMT9 [3]; [12]): > 1 µM
C=CCN1CCC([C@H]2C[C@@H](n3cc(-c4nc(Cc5ccccc5)cs4)c4c(N)nc(Cl)nc43)[C@H](O)[C@@H]2O)CC1 [Compound 509, (1R,2S,3R,5R)-3-[4-amino-5-(4-benzyl-1,3-thiazol-2-yl)-2-chloropyrrolo[2,3-d]pyrimidin-7-yl]-5-[1-(prop-2-en-1-yl)piperidin-4-yl]cyclopentane-1,2-diol]				1 to 10 µM	15 to 20 °C	≤ 0.01 µM	
Nc1nc(Cl)nc2c1c(-c1nc(Cc3ccccc3)cs1)cn2[C@@H]1C[C@H](CNCCCNCCc2ccccc2)[C@@H](O)[C@H]1O [Compound 635, (1R,2S,3R,5R)-3-(4-Amino-5-(4-benzylthiazol-2-yl)-2-chloro-7H-pyrrolo[2,3-d]pyrimidin-7-yl)-5-(((3-(phenethylamino)propyl)amino)methyl)cyclopentane-1,2-diol]							IC50 (KMT9 [1]; [10]): 0.1 to 1 µM; ΔTm at 500 µM (KMT9 [2]; [11]): 15 to 20 °C; Kd (KMT9 [3]; [12]): 0.1 to 1 µM
CNc1nc(Cl)nc2c1ccn2[C@@H]1C[C@H](CNCCCNCCc2cccc(Oc3ccccc3)c2)[C@@H](O)[C@H]1O [Compound 555, (1R,2S,3R,5R)-3-(2-chloro-4-(methylamino)-7H-pyrrolo[2,3-d]pyrimidin-7-yl)-5-(((3-((3-phenoxyphenethyl)amino)propyl)amino)methyl)cyclopentane-1,2-diol]				0.1 to 1 µM	15 to 20 °C	0.01 to 0.1 µM	
Nc1nc(Cl)nc2c1c(-c1nc(Cc3ccccc3)cs1)cn2[C@@H]1C[C@H](C2CCN(Cc3ccncc3)CC2)[C@@H](O)[C@H]1O [Compound 527, (1R,2S,3R,5R)-3-(4-amino-5-(4-benzylthiazol-2-yl)-2-chloro-7H-pyrrolo[2,3-d]pyrimidin-7-yl)-5-(1-(pyridin-4-ylmethyl)piperidin-4-yl)cyclopentane-1,2-diol]				1 to 10 µM	10 to 15 °C	0.01 to 0.1 µM	
O[C@@H]1[C@H](O)[C@@H](C2CCCN(CCc3ccccc3)C2)C[C@H]1n1cc(-c2nc(Cc3ccccc3)cs2)c2cnc(Cl)nc21 (stereo partly drawn) [Compound 518, (1R,2S,3R,5R)-3-(5-(4-benzylthiazol-2-yl)-2-chloro-7H-pyrrolo[2,3-d]pyrimidin-7-yl)-5-(1-phenethylpiperidin-3-yl)cyclopentane-1,2-diol]	> 10 µM	≤ 10 °C	> 1 µM				
Nc1ncnc2c1ccn2[C@@H]1C[C@H](c2ccc(O)cc2)[C@@H](O)[C@H]1O [Compound 405, (1R,2S,3R,5R)-3-(4-amino-7H-pyrrolo[2,3-d]pyrimidin-7-yl)-5-(4-hydroxyphenyl) cyclopentane-1,2-diol]	> 10 µM	10 to 15 °C	> 1 µM				

The next lines start with results.

IC50 (KMT9 [1]; [4])	ΔTm at 500 µM (KMT9 [2]; [5])	Kd (KMT9 [3]; [6])	IC50 (KMT9 [1]; [7])	ΔTm at 500 µM (KMT9 [2]; [8])	Kd (KMT9 [3]; [9])	Structure (SMILES)	further results
> 10 µM	≤ 10 °C	> 1 µM				O[C@@H]1[C@H](O)[C@@H](C2=CCCN(CC(F)(F)F)C2)C[C@H]1n1cc(-c2nc(Cc3ccccc3)cs2)c2cnc(Cl)nc21 [Compound 651, (1R,2S,3R,5R)-3-[5-(4-Benzyl-1,3-thiazol-2-yl)-2-chloropyrrolo[2,3-d]pyrimidin-7-yl]-5-[1-(2,2,2-trifluoroethyl)-5,6-dihydro-2H-pyridin-3-yl]cyclopentane-1,2-diol]	
0.1 to 1 µM	> 20 °C	0.01 to 0.1 µM				Nc1nc(Cl)nc2c1c(-c1nc(Cc3ccccc3)cs1)cn2[C@@H]1C[C@H](CNCCCNCCc2ccc(F)cc2)[C@@H](O)[C@H]1O [Compound 646, (1R,2S,3R,5R)-3-(4-Amino-5-(4-benzylthiazol-2-yl)-2-chloro-7H-pyrrolo[2,3-d]pyrimidin-7-yl)-5-(((3-((4-fluorophenethyl)amino)propyl)amino)methyl)cyclopentane-1,2-diol]	
0.1 to 1 µM	15 to 20 °C	≤ 0.01 µM				O[C@@H]1[C@@H](CN(CCCNCCc2ccccc2)c2cn[nH]c2)C[C@@H](n2cc(-c3cccs3)c3cnc(Cl)nc32)[C@@H]1O [Compound 641, (1R,2S,3R,5R)-3-(2-Chloro-5-(thiophen-2-yl)-7H-pyrrolo[2,3-d]pyrimidin-7-yl)-5-(((3-(phenethylamino)propyl)(1H-pyrazol-4-yl)amino)methyl)cyclopentane-1,2-diol]	
			0.1 to 1 µM	10 to 15 °C	0.01 to 0.1 µM	Nc1nc(Cl)nc2c1ccn2[C@@H]1C[C@H](c2cccc(CN3CCC3)c2)[C@@H](O)[C@H]1O [Compound 672, (1R,2S,3R,5R)-3-(4-amino-2-chloro-7H-pyrrolo[2,3-d]pyrimidin-7-yl)-5-(3-(azetidin-1-ylmethyl)phenyl)cyclopentane-1,2-diol]	
			0.1 to 1 µM	10 to 15 °C	0.01 to 0.1 µM	COc1cc(OC)cc([C@H]2C[C@@H](n3ccc4c(N)nc(Cl)nc43)[C@H](O)[C@@H]2O)c1 [Compound 664, (1R,2S,3R,5R)-3-{4-Amino-2-chloropyrrolo[2,3-d]pyrimidin-7-yl]-5-(3,5-dimethoxyphenyl)cyclopentane-1,2-diol]	
			1 to 10 µM	10 to 15 °C	0.01 to 0.1 µM	COc1cccc([C@H]2C[C@@H](n3cc(-c4ccn(C)n4)c4c(N)nc(Cl)nc43)[C@H](O)[C@@H]2O)c1 [Compound 671, (1R,2S,3R,5R)-3-(4-amino-2-chloro-5-(1-methyl-1H-pyrazol-3-yl)-7H-pyrrolo[2,3-d]pyrimidin-7-yl)-5-(3-methoxyphenyl)cyclopentane-1,2-diol]	
			1 to 10 µM	≤ 10 °C	0.1 to 1 µM	COc1cc(OC)cc([C@H]2C[C@@H](n3cc(-c4ccn(Cc5ccccc5)n4)c4c(N)nc(Cl)nc43)[C@H](O)[C@@H]2O)c1 [Compound 679, (1R,2S,3R,5R)-3-[4-amino-5-(1-benzylpyrazol-3-yl)-2-chloropyrrolo[2,3-d]pyrimidin-7-yl]-5-(3,5-dimethoxyphenyl)cyclopentane-1,2-diol]	
